# Reference: patent US20260263334A1, “COMPOSITIONS CONTAINING NITRATE-RICH FOODS AND EXTRACTS FOR SHIFTING THE ORAL MICROBIOME” (WM. WRIGLEY JR. COMPANY, priority 2023, published 2026)
# Legend:
# [1] = tested on: Aggregatibacter actinomycetemcomitans (A.a.); test: nitrate reductase (NR) activity of A.a. (Griess test); format: cell-based
# Protocol: (§1) For evaluation of nitric oxide producing capability of oral bacteria, overnight cultures of test organisms were washed once and transferred into a medium without any nitrate or nitrite compounds. A 0.5% (or 1%) KNO3 was added to the medium, and further incubated anaerobically at 37° C. for 24-48 hours. The concentration of nitrite (due to reduction of nitrate by nitrate reductase) was determined by Griess Test over a desired period of time.
# (§2) To examine the effect of natural and chemical antimicrobial agents on NO production, test bacteria were pre-exposed to magnolia bark extract (MBE) (a natural germ-kill compound), peppermint oil, and chlorhexidine (CHX). The activities of nitrate reductase from oral bacteria were assayed by Griess test as described above. No treatment controls were included for each test bacterial species. The production of nitrite was reduced if the test antimicrobial compounds affected the nitrate reductase activity. Dose response curves were prepared.
# A. actinomycetemcomitans (A.a.) was grown anaerobically in THB broth supplemented with 1% yeast extract with 0.001% Hemin, and 0.0001% Vitamin K.
# The nitrate source KNO3 (0.1% final) was added to respective growth media for individual test bacteria and incubated for 24-48 hours, then 20 μl of the culture broth was withdrawn and tested for nitrite with Griess reagent.
# Test bacteria were grown in respective media anaerobically for 48 hours. Cells were centrifuged and re-suspended in buffer or fresh medium for NR activity testing. […]
# (§3) Test bacteria cells were incubated with 1% cysteine in growth medium and 0.3% of a nitrate source. Controls contained no cysteine.
# [2] = tested on: Veillonella atypica (ATCC 17744) (V.a.); test: nitrate reductase (NR) activity of V.a (Griess test); format: cell-based; conditions: for NR activity of CHX treated V.a (OD): Reduced Transport buffer
# Protocol: as §1, §2
# V. atypica was grown in RCM medium without (NH4)2SO4 (to avoid the NH4 affecting Griess reagent); and without agar (0.05%, to avoid affecting the OD measurement).
# The method used was the same as that for A.a., except the V.a cell concentration was adjusted to OD550 nm=0.7 (10^8 CFR/ml) in Reduced Transport buffer. The NR activity was also determined in the same buffer system. […]
# as §3
# [3] = tested on: Aggregatibacter actinomycetemcomitans (A.a.); test: short-term time-kill against A.a. (viable colony on agar); format: cell-based; design: key to viable colony: +: viable colony; −: no viable colony; conditions: for viable colony: stop reagent
# Protocol: Fresh grown cells were harvested and adjusted to OD550 nm=0.5, then mixed with CHX (75-1,000 μg/ml). At different time points, an aliquot of cells was removed and mixed with (or without) stop reagent (0.5% Tween 80 and 0.07% Lecithin) to stop the CHX reaction on cells. The treated cells were centrifuged to remove the supernatant that contained CHX, and the cell pellet was spotted on BHI agar (supplemented with 0.001% Hemin, 0.0001% Vitamin K) for cell viability. Fresh grown cells were harvested and mixed with MBE for a short period of time and the viability of treated cells were evaluated. 10% DMSO was used to wash the treated cells and the MBE was removed from the assay system. Immediately after treatment, 10% DMSO was added to the cell mixture. The cell mixture was then centrifuged and washed once more with 10% DMSO. Cells treated with MBE for various times were spotted on an agar plate, […] and noted for viable colony development.
# oral microbiota = conditions: mouthwash containing 0.12% of chlorhexidine, cited from earlier work
# [4] = chlorhexidine >=10 μg/ml, summary
smiles,measurement,setting,value
"[H]/N=C(\N/C(=N/[H])NCCCCCCNC(=N)NC(=N)Nc1ccc(Cl)cc1)Nc1ccc(Cl)cc1 [CHX, chlorhexidine]",NR activity of CHX treated A.a.,[1]; CHX 100 μg/ml for 10 min,inhibited NR activity
same,OD at 550 nm for A.a. NR activity test,"[1]; CHX 100 μg/ml, 1 min treatment, 2nd trial, 2 hr",0.212 OD
same,OD at 550 nm for A.a. NR activity test,"[1]; CHX 100 μg/ml, 1 min treatment, 2nd trial, 3 hr",0.856 OD
same,OD at 550 nm for A.a. NR activity test,"[1]; CHX 100 μg/ml, 1 min treatment, 3rd trial, 2 hr",0.844 OD
same,OD at 550 nm for A.a. NR activity test,"[1]; CHX 100 μg/ml, 10 min treatment, 1st trial, 2 hr",0.117 OD
same,OD at 550 nm for A.a. NR activity test,"[1]; CHX 100 μg/ml, 10 min treatment, 1st trial, 3 hr",0.130 OD
same,OD at 550 nm for A.a. NR activity test,"[1]; CHX 100 μg/ml, 10 min treatment, 2nd trial, 2 hr",0.284 OD
same,OD at 550 nm for A.a. NR activity test,"[1]; CHX 200 μg/ml, 1 min treatment, 2nd trial, 2 hr",0.279 OD
same,OD at 550 nm for A.a. NR activity test,"[1]; CHX 200 μg/ml, 1 min treatment, 2nd trial, 3 hr",0.849 OD
same,OD at 550 nm for A.a. NR activity test,"[1]; CHX 200 μg/ml, 1 min treatment, 3rd trial, 2 hr",0.852 OD
same,OD at 550 nm for A.a. NR activity test,"[1]; CHX 200 μg/ml, 10 min treatment, 1st trial, 2 hr",0.125 OD
same,OD at 550 nm for A.a. NR activity test,"[1]; CHX 200 μg/ml, 10 min treatment, 1st trial, 3 hr",0.127 OD
same,OD at 550 nm for A.a. NR activity test,"[1]; CHX 200 μg/ml, 10 min treatment, 2nd trial, 2 hr",0.125 OD
same,OD at 550 nm for A.a. NR activity test,"[1]; CHX 300 μg/ml, 1 min treatment, 1st trial, 2 hr",0.263 OD
same,OD at 550 nm for A.a. NR activity test,"[1]; CHX 300 μg/ml, 1 min treatment, 2nd trial, 2 hr",0.134 OD
same,OD at 550 nm for A.a. NR activity test,"[1]; CHX 300 μg/ml, 1 min treatment, 2nd trial, 3 hr",0.260 OD
same,OD at 550 nm for A.a. NR activity test,"[1]; CHX 300 μg/ml, 1 min treatment, 3rd trial, 2 hr",0.853 OD
same,OD at 550 nm for A.a. NR activity test,"[1]; CHX 300 μg/ml, 10 min treatment, 1st trial, 2 hr",0.115 OD
same,OD at 550 nm for A.a. NR activity test,"[1]; CHX 300 μg/ml, 10 min treatment, 1st trial, 3 hr",0.130 OD
same,OD at 550 nm for A.a. NR activity test,"[1]; CHX 300 μg/ml, 10 min treatment, 2nd trial, 2 hr",0.129 OD
same,OD at 550 nm for A.a. NR activity test,"[1]; CHX 500 μg/ml, 1 min treatment, 1st trial, 2 hr",0.284 OD
same,OD at 550 nm for A.a. NR activity test,"[1]; CHX 500 μg/ml, 1 min treatment, 2nd trial, 2 hr",0.107 OD
same,OD at 550 nm for A.a. NR activity test,"[1]; CHX 500 μg/ml, 1 min treatment, 2nd trial, 3 hr",0.213 OD
same,OD at 550 nm for A.a. NR activity test,"[1]; CHX 500 μg/ml, 1 min treatment, 3rd trial, 2 hr",0.443 OD
same,OD at 550 nm for A.a. NR activity test,"[1]; CHX 500 μg/ml, 10 min treatment, 1st trial, 2 hr",0.114 OD
same,OD at 550 nm for A.a. NR activity test,"[1]; CHX 500 μg/ml, 10 min treatment, 1st trial, 3 hr",0.118 OD
same,OD at 550 nm for A.a. NR activity test,"[1]; CHX 500 μg/ml, 10 min treatment, 2nd trial, 2 hr",0.131 OD
same,OD at 550 nm for A.a. NR activity test,"[1]; CHX 750 μg/ml, 1 min treatment, 1st trial, 2 hr",0.148 OD
same,OD at 550 nm for A.a. NR activity test,"[1]; CHX 750 μg/ml, 1 min treatment, 2nd trial, 2 hr",0.107 OD
same,OD at 550 nm for A.a. NR activity test,"[1]; CHX 750 μg/ml, 1 min treatment, 2nd trial, 3 hr",0.169 OD
same,OD at 550 nm for A.a. NR activity test,"[1]; CHX 750 μg/ml, 1 min treatment, 3rd trial, 2 hr",0.391 OD
same,OD at 550 nm for A.a. NR activity test,"[1]; CHX 750 μg/ml, 10 min treatment, 1st trial, 2 hr",0.118 OD
same,OD at 550 nm for A.a. NR activity test,"[1]; CHX 750 μg/ml, 10 min treatment, 1st trial, 3 hr",0.141 OD
same,OD at 550 nm for A.a. NR activity test,"[1]; CHX 750 μg/ml, 10 min treatment, 2nd trial, 2 hr",0.112 OD
same,NR activity of CHX treated A.a.,"[1]; CHX 1,000 μg/ml (0.1%) for 1 min",completely inhibited NR activity
same,OD at 550 nm for A.a. NR activity test,"[1]; CHX 1000 μg/ml, 1 min treatment, 1st trial, 2 hr",0.160 OD
same,activities of nitrate reductase,[1]; [4],significantly inhibits
same,NR activity of CHX treated V.a (OD),"[2]; CHX 10 μg/ml, 1 min Treatment",0.266 OD
same,NR activity of CHX treated V.a (OD),"[2]; CHX 10 μg/ml, 10 min Treatment",0.300 OD
same,NR activity of CHX treated V.a (OD),"[2]; CHX 50 μg/ml, 1 min Treatment",0.304 OD
same,NR activity of CHX treated V.a (OD),"[2]; CHX 50 μg/ml, 10 min Treatment",0.282 OD
same,NR activity of CHX treated V.a (OD),"[2]; CHX 100 μg/ml, 1 min Treatment",0.255 OD
same,NR activity of CHX treated V.a (OD),"[2]; CHX 100 μg/ml, 10 min Treatment",0.280 OD
same,NR activity of CHX treated V.a (OD),"[2]; CHX 250 μg/ml, 1 min Treatment",0.190 OD
same,NR activity of CHX treated V.a (OD),"[2]; CHX 250 μg/ml, 10 min Treatment",0.161 OD
same,NR activity of CHX treated V.a (OD),"[2]; CHX 500 μg/ml, 1 min Treatment",0.170 OD
same,NR activity of CHX treated V.a (OD),"[2]; CHX 500 μg/ml, 10 min Treatment",0.162 OD
same,activities of nitrate reductase,[2]; [4],significantly inhibits
same,viable colony,"[3]; CHX 75 μg/ml, treatment time 0 min",+
same,viable colony,"[3]; CHX 75 μg/ml, treatment time 5 min",+
same,viable colony,"[3]; CHX 75 μg/ml, treatment time 30 min",+
same,viable colony,"[3]; CHX 75 μg/ml, treatment time 60 min",+
same,viable colony,"[3]; CHX 100 μg/ml, treatment time 0 min",+
same,viable colony,"[3]; CHX 100 μg/ml, treatment time 1 min",+
same,viable colony,"[3]; CHX 100 μg/ml, treatment time 3 min",+
same,viable colony,"[3]; CHX 100 μg/ml, treatment time 5 min",+
same,viable colony,"[3]; CHX 100 μg/ml, treatment time 10 min",+
same,viable colony,"[3]; CHX 100 μg/ml, treatment time 30 min",+
same,viable colony,"[3]; CHX 100 μg/ml, treatment time 60 min",−
same,viable colony,"[3]; CHX 200 μg/ml, treatment time 0 min",+
same,viable colony,"[3]; CHX 200 μg/ml, treatment time 1 min",+
same,viable colony,"[3]; CHX 200 μg/ml, treatment time 2 min",+
same,viable colony,"[3]; CHX 200 μg/ml, treatment time 3 min",+
same,viable colony,"[3]; CHX 200 μg/ml, treatment time 5 min",+
same,viable colony,"[3]; CHX 200 μg/ml, treatment time 10 min",+
same,viable colony,"[3]; CHX 200 μg/ml, treatment time 30 min",−
same,viable colony,"[3]; CHX 200 μg/ml, treatment time 60 min",−
same,viable colony,"[3]; CHX 300 μg/ml, treatment time 0 min",+
same,viable colony,"[3]; CHX 300 μg/ml, treatment time 1 min",+
same,viable colony,"[3]; CHX 300 μg/ml, treatment time 2 min",+
same,viable colony,"[3]; CHX 300 μg/ml, treatment time 3 min",+
same,viable colony,"[3]; CHX 300 μg/ml, treatment time 5 min",+
same,viable colony,"[3]; CHX 300 μg/ml, treatment time 10 min",+
same,viable colony,"[3]; CHX 300 μg/ml, treatment time 30 min",−
same,viable colony,"[3]; CHX 300 μg/ml, treatment time 60 min",−
same,viable colony,"[3]; CHX 500 μg/ml, treatment time 0 min",+
same,viable colony,"[3]; CHX 500 μg/ml, treatment time 1 min",+
same,viable colony,"[3]; CHX 500 μg/ml, treatment time 2 min",+
same,viable colony,"[3]; CHX 500 μg/ml, treatment time 3 min",+
same,viable colony,"[3]; CHX 500 μg/ml, treatment time 5 min",+
same,viable colony,"[3]; CHX 500 μg/ml, treatment time 10 min",−
same,viable colony,"[3]; CHX 500 μg/ml, treatment time 30 min",−
same,viable colony,"[3]; CHX 500 μg/ml, treatment time 60 min",−
same,viable colony,"[3]; CHX 750 μg/ml, treatment time 0 min",+
same,viable colony,"[3]; CHX 750 μg/ml, treatment time 1 min",+
same,viable colony,"[3]; CHX 750 μg/ml, treatment time 2 min",+
same,viable colony,"[3]; CHX 750 μg/ml, treatment time 3 min",+
same,viable colony,"[3]; CHX 750 μg/ml, treatment time 5 min",+
same,viable colony,"[3]; CHX 750 μg/ml, treatment time 10 min",−
same,viable colony,"[3]; CHX 750 μg/ml, treatment time 30 min",−
same,viable colony,"[3]; CHX 750 μg/ml, treatment time 60 min",−
same,viable colony,"[3]; CHX 1000 μg/ml, treatment time 0 min",+
same,viable colony,"[3]; CHX 1000 μg/ml, treatment time 1 min",+
same,viable colony,"[3]; CHX 1000 μg/ml, treatment time 2 min",+
same,viable colony,"[3]; CHX 1000 μg/ml, treatment time 3 min",−
same,viable colony,"[3]; CHX 1000 μg/ml, treatment time 5 min",−
same,viable colony,"[3]; CHX 1000 μg/ml, treatment time 30 min",−
same,viable colony,"[3]; CHX 1000 μg/ml, treatment time 60 min",−
same,viability of A.a.,"[3]; CHX 75-1,000 μg/ml, two-minute treatment, stop reagent added",limited viability
same,VSC-producing bacteria and enteric nitric oxide producing bacteria,oral microbiota,reduced
same,oral and plasma nitrite levels,oral microbiota; healthy human volunteers,reduced
same,systolic and diastolic blood pressure,oral microbiota; healthy human volunteers,sustained increase
